The subject of assay [1] is IL-1β release upon NLRP3 activation in peripheral blood mononuclear cells (PBMC). The assay is described as follows: PBMC IC50 Determination Assay. In kind it is cell-based. The note with it: Homo sapiens; inhibition of IL-1β release; PBMC primed with LPS, stimulated with ATP or nigericin; ELISA or HTRF. The method in brief:
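Human buffy-coat PBMC primed 3 h with LPS (1 μg/mL in Protocol B), given compound for 30 min, then stimulated 1 h with 5 mM ATP or 10 μM nigericin (Protocol A) or 5 mM ATP (Protocol B). IL-1β in supernatant measured by ELISA at 450 nm (A) or HTRF (B).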
For orientation: ELISA stands for enzyme-linked immunosorbent assay.

Assay [2] concerns IL-1β release upon NLRP3 activation in phorbol 12-myristate 13-acetate (PMA)-differentiated THP-1 cells. Description: THP-1 IC50 Determination Assay. The format is cell-based. The note with it: Homo sapiens, inhibition of IL-1β release, LPS, nigericin, ELISA. The method, boiled down:
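THP-1 cells differentiated with 5 ng/mL PMA for ~40 h, plated 30,000/well and primed 2 h with 25 ng/mL LPS. Compounds added as 8-point 1:3 series (0.5% DMSO), then nigericin activation for 2 h at 37 °C; supernatant IL-1β measured by ELISA.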

The values that follow come from US20250206745A1, “PYRROLOPYRIDAZINE DERIVATIVES AND RELATED USES” (NodThera Limited, priority 2023, published 2025).

Counter-ions that a name gives are not always drawn. A value given as a limit tells only on which side of the number the result lay.

For `Cc1cc(Cl)cc(O)c1-c1cc2ccn(CC3CC4(C3)CN(C)C4)c2nn1` [Compound 52, 5-Chloro-3-methyl-2-[7-({2-methyl-2-azaspiro[3.3]heptan-6-yl}methyl)-7H-pyrrolo[2,3-c]pyridazin-3-yl]phenol hydrochloride], the IC50 lay within 300 to 1000 nM in assay [1] and 100 to 300 nM in assay [2].

For the molecule `CC(=O)N1CCCC(Cn2ccc3cc(-c4c(C)cc(Cl)cc4O)nnc32)C1` (stereo not drawn) [Compound 53, 1-(3-{[3-(4-Chloro-2-hydroxy-6-methylphenyl)-7H-pyrrolo[2,3-c]pyridazin-7-yl]methyl}piperidin-1-yl)ethan-1-one], the IC50 in assay [1] and in assay [2] was 100 to 300 nM in each case.

For the molecule `Cc1cc(C#N)cc(O)c1-c1cc2ccn(CC3CCN(C)CC3)c2nn1` [Compound 54, 3-Hydroxy-5-methyl-4-{7-[(1-methylpiperidin-4-yl)methyl]-7H-pyrrolo[2,3-c]pyridazin-3-yl}benzonitrile], the results for the IC50 in assay [1] and in assay [2] were 100 to 300 nM and 300 to 1000 nM, respectively.

In the case of `Cc1cc(Cl)cc(O)c1-c1cc2ccn(CC3(C#N)CCN(C)CC3)c2nn1` [Compound 55, 4-{[3-(4-Chloro-2-hydroxy-6-methylphenyl)-7H-pyrrolo[2,3-c]pyridazin-7-yl]methyl}-1-methylpiperidine-4-carbonitrile], the IC50 in assay [1] and in assay [2] was 30 to 100 nM throughout.

As to `Cc1cc(Cl)cc(O)c1-c1cc2ccn(CC3(O)CCN(C)CC3)c2nn1` [Compound 56, 4-{[3-(4-Chloro-2-hydroxy-6-methylphenyl)-7H-pyrrolo[2,3-c]pyridazin-7-yl]methyl}-1-methylpiperidin-4-ol hydrochloride], the IC50 in assay [1] and in assay [2] was less than 30 nM throughout.

As to `CC(=O)N1CCCCC1Cn1ccc2cc(-c3c(C)cc(Cl)cc3O)nnc21` (stereo not drawn) [Compound 57, 1-(2-{[3-(4-Chloro-2-hydroxy-6-methylphenyl)-7H-pyrrolo[2,3-c]pyridazin-7-yl]methyl}piperidin-1-yl)ethan-1-one], the IC50 in assay [1] and in assay [2] was 30 to 100 nM in each case.

As for `Cc1cc(Cl)cc(O)c1-c1cc2ccn(CC(=O)N(C)C3COC3)c2nn1` [Compound 58, 2-[3-(4-Chloro-2-hydroxy-6-methylphenyl)-7H-pyrrolo[2,3-c]pyridazin-7-yl]-N-methyl-N-(oxetan-3-yl)acetamide], the IC50 in assay [1] and in assay [2] was 100 to 300 nM throughout.

`Cc1cc(Cl)cc(O)c1-c1cc2ccn(CC(=O)N(C)[C@H]3CCOC3)c2nn1` [Compound 59, 2-[3-(4-Chloro-2-hydroxy-6-methylphenyl)-7H-pyrrolo[2,3-c]pyridazin-7-yl]-N-methyl-N-[(3S)-oxolan-3-yl]acetamide]: the IC50 lay in the range of 30 to 100 nM in assay [1] and 100 to 300 nM in assay [2].

`Cc1cc(Cl)cc(O)c1-c1cc2ccn(CC3CCN(C=O)CC3)c2nn1` [Compound 63, 4-{[3-(4-Chloro-2-hydroxy-6-methylphenyl)-7H-pyrrolo[2,3-c]pyridazin-7-yl]methyl}piperidine-1-carbaldehyde]: the IC50 was less than 30 nM in assay [1] and 30 to 100 nM in assay [2].

Turning to `Cc1cc(Cl)cc(O)c1-c1cc2ccn(CC3CCC(=O)N3C)c2nn1` (stereo not drawn) [Compound 65, 5-{[3-(4-Chloro-2-hydroxy-6-methylphenyl)-7H-pyrrolo[2,3-c]pyridazin-7-yl]methyl}-1-methylpyrrolidin-2-one], the IC50 in assay [1] and in assay [2] was 30 to 100 nM in each case.

For the molecule `Cc1cc(Cl)cc(O)c1-c1cc2ncn(CC3CCN(C)CC3)c2nn1` [Compound 71, 5-Chloro-3-methyl-2-{7-[(1-methylpiperidin-4-yl)methyl]-7H-imidazo[4,5-c]pyridazin-3-yl}phenol], the results for the IC50 in assay [1] and in assay [2] were less than 30 nM and 30 to 100 nM, respectively.

Regarding `CC(=O)N1CCC(Cn2cnc3cc(-c4c(C)cc(Cl)cc4O)nnc32)CC1` [Compound 72, 1-(4-{[3-(4-Chloro-2-hydroxy-6-methylphenyl)-7H-imidazo[4,5-c]pyridazin-7-yl]methyl}piperidin-1-yl)ethan-1-one], the IC50 in assay [1] and in assay [2] was 30 to 100 nM throughout.

For `Cc1cc(C#N)cc(O)c1-c1cc2ncn(CC3CCN(C)CC3)c2nn1` [Compound 73, 3-Hydroxy-5-methyl-4-{7-[(1-methylpiperidin-4-yl)methyl]-7H-imidazo[4,5-c]pyridazin-3-yl}benzonitrile], the IC50 in assay [1] lay in the range of 100 to 300 nM; in assay [2], 300 to 1000 nM.

As for `Cc1cc(Cl)cc(O)c1-c1cc2ncn(C[C@H]3CCN(C)C3)c2nn1` [Compound 74, 5-Chloro-3-methyl-2-(7-{[(3S)-1-methylpyrrolidin-3-yl]methyl}-7H-imidazo[4,5-c]pyridazin-3-yl)phenol hydrochloride], the IC50 in assay [1] and in assay [2] was 30 to 100 nM in each case.

Take `Cc1cc(Cl)cc(O)c1-c1cc2ncn(C[C@@H]3CCN(C)C3)c2nn1` [Compound 75, 5-Chloro-3-methyl-2-(7-{[(3R)-1-methylpyrrolidin-3-yl]methyl}-7H-imidazo[4,5-c]pyridazin-3-yl)phenol hydrochloride]: the IC50 in assay [1] was in the range of 30 to 100 nM; in assay [2], 100 to 300 nM.

As for `Cc1cc(C)c(-c2cc3ncn(CC4CCN(C)CC4)c3nn2)c(O)c1` [Compound 76, 3,5-Dimethyl-2-{7-[(1-methylpiperidin-4-yl)methyl]-7H-imidazo[4,5-c]pyridazin-3-yl}phenol], the IC50 in assay [1] and in assay [2] was 30 to 100 nM each time.

Take `Cc1cc(Cl)cc(O)c1-c1cc2ncn(CC(=O)N(C)C)c2nn1` [Compound 77, 2-[3-(4-Chloro-2-hydroxy-6-methylphenyl)-7H-imidazo[4,5-c]pyridazin-7-yl]-N,N-dimethylacetamide]: the IC50 in assay [1] is 30 to 100 nM; in assay [2], 100 to 300 nM.

For `Cc1cc(Cl)cc(O)c1-c1cc2ncn(CC3(F)CCN(C)CC3)c2nn1` [Compound 78, 5-Chloro-2-{7-[(4-fluoro-1-methylpiperidin-4-yl)methyl]-7H-imidazo[4,5-c]pyridazin-3-yl}-3-methylphenol hydrochloride], the IC50 in assay [1] and in assay [2] was 30 to 100 nM throughout.

By IC50 is commonly meant the concentration that inhibits the measured activity by half. The low end stands for inhibition by little substance, the high end for a need for much substance.
